Experimental data as given in the supplement of paper PMC10307832.

Tests used:
Assay in all cases: relative viability (nuclei count vs DMSO), 5 days (fraction); higher = more cells survive
Bleomycin + Alpelisib = compound: CC1=C(N=C(N=C1N)[C@H](CC(=O)N)NC[C@@H](C(=O)N)N)C(=O)N[C@@H]([C@H](C2=CN=CN2)OC3C(C(C(C(O3)CO)O)O)OC4C(C(C(C(O4)CO)O)OC(=O)N)O)C(=O)N[C@H](C)[C@H]([C@H](C)C(=O)N[C@@H]([C@@H](C)O)C(=O)NCCC5=NC(=CS5)C6=NC(=CS6)C(=O)NCCC[S+](C)C)O [Bleomycin] + Cc1nc(NC(=O)N2CCC[C@H]2C(N)=O)sc1-c1ccnc(C(C)(C)C(F)(F)F)c1 [Alpelisib] (partner 2 µM); details: main component drawn
How it was run: (§1)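 Values are medians from duplicate plates. Each reflects relative viability, defined as the nuclei count of treated wells over that of vehicle wells. Lung cancer cell lines in 1536-well plates were pin-tool dosed one day after seeding with one drug alone or with a fixed anchor-drug dose plus five library-drug doses (not always all listed) in √10 steps, then fixed, stained and imaged at 4× after 5 days.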

Etoposide + Palbociclib = compound: COc1cc([C@@H]2c3cc4c(cc3[C@@H](O[C@@H]3O[C@@H]5CO[C@@H](C)O[C@H]5[C@H](O)[C@H]3O)[C@H]3COC(=O)[C@H]23)OCO4)cc(OC)c1O [Etoposide] + CC(=O)c1c(C)c2cnc(Nc3ccc(N4CCNCC4)cn3)nc2n(C2CCCC2)c1=O [Palbociclib] (partner 0.5 µM)
How it was run: as §1

Etoposide + Bortezomib = compound: COc1cc([C@@H]2c3cc4c(cc3[C@@H](O[C@@H]3O[C@@H]5CO[C@@H](C)O[C@H]5[C@H](O)[C@H]3O)[C@H]3COC(=O)[C@H]23)OCO4)cc(OC)c1O [Etoposide] + CC(C)C[C@H](NC(=O)[C@H](Cc1ccccc1)NC(=O)c1cnccn1)B(O)O [Bortezomib] (partner 0.002 µM)
How it was run: as §1

Etoposide + AZD7762 = compound: COc1cc([C@@H]2c3cc4c(cc3[C@@H](O[C@@H]3O[C@@H]5CO[C@@H](C)O[C@H]5[C@H](O)[C@H]3O)[C@H]3COC(=O)[C@H]23)OCO4)cc(OC)c1O [Etoposide] + NC(=O)Nc1cc(-c2cccc(F)c2)sc1C(=O)N[C@H]1CCCNC1 [AZD7762] (partner 0.2 µM)
How it was run: as §1

Cell Line | relative viability (Bleomycin + Alpelisib; first compound 0.01 µM) | relative viability (Bleomycin + Alpelisib; first compound 0.03162 µM) | relative viability (Bleomycin + Alpelisib; first compound 0.1 µM) | relative viability (Bleomycin + Alpelisib; first compound 0.3162 µM) | relative viability (Bleomycin + Alpelisib; first compound 1 µM) | relative viability (Etoposide + Palbociclib; first compound 0.01 µM) | relative viability (Etoposide + Palbociclib; first compound 0.03162 µM) | relative viability (Etoposide + Palbociclib; first compound 0.1 µM) | relative viability (Etoposide + Palbociclib; first compound 0.3162 µM) | relative viability (Etoposide + Palbociclib; first compound 1 µM) | relative viability (Etoposide + Bortezomib; first compound 0.01 µM) | relative viability (Etoposide + Bortezomib; first compound 0.03162 µM) | relative viability (Etoposide + Bortezomib; first compound 0.1 µM) | relative viability (Etoposide + Bortezomib; first compound 0.3162 µM) | relative viability (Etoposide + Bortezomib; first compound 1 µM) | relative viability (Etoposide + AZD7762; first compound 0.01 µM) | relative viability (Etoposide + AZD7762; first compound 0.03162 µM) | relative viability (Etoposide + AZD7762; first compound 0.1 µM) | relative viability (Etoposide + AZD7762; first compound 0.3162 µM) | relative viability (Etoposide + AZD7762; first compound 1 µM)
A549 | 0.593 | 0.44 | 0.314 | 0.0966 | 0.0714 | – | – | – | – | – | – | – | – | – | – | – | – | – | – | –
NCI-H520 | 0.759 | 0.796 | 0.863 | 0.543 | 0.402 | 0.256 | 0.245 | 0.193 | 0.254 | 0.227 | 0.484 | 0.634 | 0.379 | 0.576 | 0.561 | – | – | – | – | –
NCI-H358 | 0.889 | 0.799 | 0.712 | 0.481 | 0.349 | 0.132 | 0.148 | 0.131 | 0.104 | 0.0757 | – | – | – | – | – | 0.512 | 0.527 | 0.332 | 0.288 | 0.266
NCI-H1563 | 0.831 | 0.707 | 0.678 | 0.613 | 0.572 | – | – | – | – | – | 0.802 | 0.866 | 0.781 | 0.618 | 0.605 | – | – | – | – | –
NCI-H1395 | 0.817 | 0.812 | 0.669 | 0.9 | 0.382 | 0.625 | 0.595 | 0.555 | 0.638 | 0.545 | – | – | – | – | – | 0.423 | 0.435 | 0.4 | 0.375 | 0.362
NCI-H2228 | 0.905 | 0.959 | 0.696 | 0.341 | 0.376 | 0.705 | 0.765 | 0.435 | 0.32 | 0.145 | 1 | 1.17 | 0.731 | 0.717 | 0.22 | – | – | – | – | –
